These are literature values, as cited in patent publication US9314478B2, “Method of making an anhydrous, fat soluble, chewable drug delivery formulation” (Argenta Manufacturing Limited, priority 2013, dated 2016).

Turning to `CC(C(=O)O)c1ccc2c(c1)[nH]c1ccc(Cl)cc12` (stereo not shown) [Carprofen], the Aqueous solubility result was “Poor”. For the compound `Cc1cnc(NC(=O)C2=C(O)c3ccccc3S(=O)(=O)N2C)s1` [Meloxicam], the Aqueous solubility result was “Poor”. Take `CCCOc1ccc2nc(NC(=O)OC)[nH]c2c1` [Oxibendazole]: the Aqueous solubility result is “Poor”.

For the compound `O=C(C1CCCCC1)N1CC(=O)N2CCc3ccccc3C2C1` (stereo not shown) [Praziquantel], the Aqueous solubility result is given as “Soluble”. As to `CN1CCCN=C1/C=C/c1cccs1` [Pyrantel], the Aqueous solubility result was “Poor”.

With Milbemycin oxime, the Aqueous solubility result is listed as “Poor”. In the case of Spinosad, the Aqueous solubility result is on record as “Soluble”.
